Patent publication US11643670B2, “Methods of enhancing chromosomal homologous recombination” (Massachusetts Institute of Technology, priority 2018, dated 2023)

Legend:
[1] = target: T1, Cas9 (Streptococcus pyogenes serotype M1, UniProt Q99ZW2); assay: In vitro Cas9 digestion assay; type: biochemical, S. pyogenes; settings: 10 ng/μL protein co-incubated, PCR amplimer of the Chd2^R1684H locus, 37° C. 1 hour
T1 construct: NLS (nuclear localization signal); purchased New England Biolabs
Experimental: Wildtype or Chd2^R1684H/R1684H genomic DNA was used as input for PCR using the conditions described above and the primers specified in FIGS. 10A-10D and FIG. 12. After confirmation of a single band via gel electrophoresis, the PCR reactions were purified using the DNA Clean & Concentrator kit (Zymo) according to the manufacturer's instructions. crRNA and tracrRNA were diluted 1 μM in nuclease-free Duplex Buffer (IDT) and incubated at 95° C. for 5 minutes before being allowed to cool to room temperature on the bench. Digestion mixtures were made in separate tubes by combining nuclease-free water, 10× Cas9 Nuclease Reaction Buffer (final concentration 1×, New England Biolabs), 1 μL of the cooled crRNA/tracrRNA duplex, and, if necessary, 1 μL of EnGen Cas9 NLS, S. pyogenes (New England Biolabs). These mixtures were heated to 37° C. for 10 minutes before adding 250 ng PCR product and, if necessary, RAD51 G151D (10 ng/μL final concentration, custom-produced by Creative Biomart) or BCCIP (10 ng/μL final concentration, Origene TP303061). Digestion was performed at 37° C. for 1 hour, Cas9 was denatured at 95° C., 6× Purple Gel Loading Dye (New England Biolabs) was added to a final concentration of 1×, and the samples were allowed to passively cool to room temperature. […]

[2] = system: maternal Chd2 locus; assay: Donor-free interchromosomal homologous recombination (ICHR) in IVF-derived Chd2^R1684H/+ embryos; type: cell-based, mouse
Experimental: tracrRNA, crRNAs, and ssODNs were synthesized by Integrated DNA Technologies (TABLE 1). All injection mixtures were prepared in a final volume of 50 μL according to the following methodology: Using RNase-free water, reagents, and consumables, crRNA (final concentration 0.61 μM), tracrRNA (final concentration 0.61 μM), and ultrapure Tris-HCl, pH 7.39 (final concentration 10 mM, ThermoFisher) were mixed and incubated at 95° C. for 5 minutes. The mixtures were cooled to room temperature for 10 minutes on the benchtop, and then, EnGen Cas9-NLS S. pyogenes (New England Biolabs) was added to a final concentration of 30 ng/μL. The mixtures were incubated at 37° C. for 15 minutes before adding any remaining components: ssODN (final concentration 3 ng/μL or 30 ng/μL), RAD51 (Creative Biomart, final concentration 10 ng/μL). Injection mixtures were stored on ice and briefly heated to 37° C. prior to injection. For experiments utilizing RS-1, embryos were cultured in KSOM-AA (EMD Millipore MR-121-D) with […] RS-1 (Sigma) dissolved in DMSO or DMSO (Sigma, 1:1000) for 24 hours, washed, and cultured in EmbryoMax FHM HEPES Buffered Medium (Sigma) until collection for genotyping.
For experiments using wildtype recombinant proteins, the following proteins were used: RAD51 (Creative Biomart RAD51-134H), USP1/WDR48 (Creative Biomart USP1&WDR48-1067H), BCCIP (Origene TP303061), XRCC1 (TP304952), XRCC4 (Origene TP312684), DMC1 (Origene TP318311). For experiments using mutant RAD51, custom RAD51 preparations were produced by Creative Biomart according to their standard protocol for producing the wildtype RAD51 used in all other experiments. Mutant DNA sequences used for cloning are described in TABLE 2. All RAD51 mutants were modeled in human RAD51 transcript variant 4 (NCBI accession NM_001164269), as this is the transcript variant of the wildtype RAD51-134H protein used in all other experiments.
In vitro fertilization was performed using FERTIUP® Mouse Preincubation Medium and CARD MEDIA (Kyudo Company) according to the manufacturer's protocol. Non-virgin Chd2^R1684H/R1684H males that were >8 weeks old were used as sperm donors. Following IVF, embryos were cultured for 8 hours and then injected using the PNI protocol described below.
For all experiments except those described in FIG. 6, the male pronucleus was injected. Injections performed for the CPI portion of FIG. 6 were targeted to the cytoplasm. All microinjections were performed using a Narishige Micromanipulator, Nikon Eclipse TE2000-S microscope, and Eppendorf 5242 microinjector. Individual zygotes were injected with 1-2 pL of injection mixture using an “automatic” injection mode set according to needle size and adjusted for clear increase in pronuclear volume. Following injections, cells were cultured in KSOM-AA until collection for genotyping. For experiments giving rise to F0 animals, embryos were surgically implanted into pseudopregnant CD-1 females (Charles River Laboratories, Strain Code 022) 24-hours post-injection and allowed to develop normally until natural birth.
Embryos were collected at morula-to-blastocyst stage in 4 μL nuclease-free water. After collection, 4 μL of 2× embryo digestion buffer was added to each sample (final concentrations: 125 μg/mL proteinase K, 100 mM Tris-HCl pH 8.0, 100 mM KCl, 0.02% gelatin, 0.45% Tween-20, 60 μg/mL yeast tRNA) and embryos were lysed for 1 hour at 56° C. Proteinase K was inactivated via incubation at 95° C. for 10 minutes and DNA was stored at −20° C. until use.
Chd2^R1684H genotyping was performed via a two-step, nested approach. Except for experiments described in FIGS. 3A-3G, all 8 μL of embryo DNA were used as input for the initial, long round of PCR. Genotyping of mouse pups and adult animals was performed using 2 μL of purified tail DNA. For all embryo genotyping, reactions mixtures were set up in a UV-sterilized laminar flow hood using sterile reagents and filter tips to avoid contamination. […]

[3] = co-injected with Cas9/crRNA/tracrRNA, no donor
[4] = compared to embryos injected with wildtype RAD51

T1 sequence (Q99ZW2 whole entry): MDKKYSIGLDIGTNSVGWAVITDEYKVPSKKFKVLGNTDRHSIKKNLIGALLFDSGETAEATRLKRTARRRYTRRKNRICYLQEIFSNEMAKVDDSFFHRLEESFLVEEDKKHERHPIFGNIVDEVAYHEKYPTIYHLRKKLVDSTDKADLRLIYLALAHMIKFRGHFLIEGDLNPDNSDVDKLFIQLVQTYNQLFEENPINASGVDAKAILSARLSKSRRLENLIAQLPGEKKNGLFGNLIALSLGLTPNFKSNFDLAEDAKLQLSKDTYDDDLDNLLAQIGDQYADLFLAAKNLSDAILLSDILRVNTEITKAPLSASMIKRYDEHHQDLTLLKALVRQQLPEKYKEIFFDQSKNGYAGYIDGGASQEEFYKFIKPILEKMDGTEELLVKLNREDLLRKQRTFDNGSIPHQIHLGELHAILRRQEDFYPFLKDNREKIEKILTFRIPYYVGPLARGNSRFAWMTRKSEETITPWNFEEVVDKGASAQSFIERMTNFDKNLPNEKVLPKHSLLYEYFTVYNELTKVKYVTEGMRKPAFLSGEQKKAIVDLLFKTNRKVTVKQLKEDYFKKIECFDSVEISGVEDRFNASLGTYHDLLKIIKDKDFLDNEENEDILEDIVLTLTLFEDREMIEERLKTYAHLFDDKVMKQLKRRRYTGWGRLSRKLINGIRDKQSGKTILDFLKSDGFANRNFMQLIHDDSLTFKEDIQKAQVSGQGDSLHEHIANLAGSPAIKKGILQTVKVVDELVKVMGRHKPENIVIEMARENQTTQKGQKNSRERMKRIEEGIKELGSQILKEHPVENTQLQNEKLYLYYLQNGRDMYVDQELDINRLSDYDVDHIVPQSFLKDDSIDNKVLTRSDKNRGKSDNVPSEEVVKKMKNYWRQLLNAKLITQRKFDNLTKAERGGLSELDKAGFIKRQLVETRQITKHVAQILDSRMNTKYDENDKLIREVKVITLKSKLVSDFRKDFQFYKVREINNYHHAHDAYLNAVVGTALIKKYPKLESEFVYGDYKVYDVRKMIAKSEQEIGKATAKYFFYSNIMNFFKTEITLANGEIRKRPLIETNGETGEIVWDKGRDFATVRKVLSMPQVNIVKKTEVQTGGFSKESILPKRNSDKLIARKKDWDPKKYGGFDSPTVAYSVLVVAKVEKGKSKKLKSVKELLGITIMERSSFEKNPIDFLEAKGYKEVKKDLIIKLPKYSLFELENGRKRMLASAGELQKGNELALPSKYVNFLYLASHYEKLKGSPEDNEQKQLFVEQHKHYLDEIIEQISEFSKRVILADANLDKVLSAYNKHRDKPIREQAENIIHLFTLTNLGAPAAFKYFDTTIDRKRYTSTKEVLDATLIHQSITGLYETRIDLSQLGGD

Substance	direct inhibition of Cas9 nuclease activity [1]	efficiency of ICHR stimulation [2] [%]	embryos with mosaic ICHR that were mosaic with an indel [2]	indel-to-ICHR ratio (level) [2]	ICHR rate compared with baseline (Cas9-only embryos) [2, 3]	edited embryos showing ICHR [2, 3] [%]	indel-to-ICHR ratio ([2]; compared to control embryos)	overall indel rate ([2]; compared to control embryos)	indel-to-ICHR ratio [2, 4]	overall indel rate [2, 4]	effect on mosaicism in embryos exhibiting ICHR ([2]; compared to enhancer-free embryos)
BCCIP: recombinant BRCA2-interacting protein BCCIP (Origene TP303061)	not due to direct inhibition of Cas9 activity	~100	1/14	near zero	significantly stronger effect on ICHR rates than USP1/WDR48	95	drastic decrease	drastic decrease	significant decreases	significant decreases	strong effect on mosaicism
G151D: recombinant RAD51 gain-of-function mutant with increased strand exchange activity, SEQ ID NO: 8	did not observe any direct inhibition of Cas9 activity	–	–	–	–	–	–	–	–	–	–
